In patent US20080014585A1, “SYNERGISTIC ACTIVATION OF REGULATORY ELEMENTS BY REL PROTEINS AND A STEROID RECEPTOR” (N.V. Organon, priority 2000, published 2008):
“Also recorded” adds a separate entry of the source.

Columns and labels:
human ERα = target: T1, human ERα (Homo sapiens, UniProt P03372); experiment: 5-HT1A receptor promoter (-901luc) luciferase reporter, COS-1 cells cotransfected with NF-κB (p50, p65) and ERα; type: cell-based
T1 construct: expressed in transfected cells; host or cells: COS-1 (monkey)
T1 sequence (P03372 1-595): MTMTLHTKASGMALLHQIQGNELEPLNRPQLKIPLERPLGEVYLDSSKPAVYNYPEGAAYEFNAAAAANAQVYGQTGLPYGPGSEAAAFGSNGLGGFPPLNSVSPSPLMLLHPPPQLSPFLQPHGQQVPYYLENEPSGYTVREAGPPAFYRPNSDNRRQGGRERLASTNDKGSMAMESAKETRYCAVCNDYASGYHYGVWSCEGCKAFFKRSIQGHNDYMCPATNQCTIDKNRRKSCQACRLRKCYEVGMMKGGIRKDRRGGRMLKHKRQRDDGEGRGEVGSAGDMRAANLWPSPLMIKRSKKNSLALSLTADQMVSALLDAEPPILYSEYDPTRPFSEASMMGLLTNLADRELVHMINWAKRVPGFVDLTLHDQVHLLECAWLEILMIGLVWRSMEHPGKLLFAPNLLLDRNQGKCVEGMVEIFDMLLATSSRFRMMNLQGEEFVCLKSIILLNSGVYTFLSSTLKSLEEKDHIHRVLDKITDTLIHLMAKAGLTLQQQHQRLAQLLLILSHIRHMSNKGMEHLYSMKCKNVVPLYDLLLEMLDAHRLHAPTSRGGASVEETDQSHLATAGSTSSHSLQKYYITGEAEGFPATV
From the text: Depicted is the induction of luciferase activity evoked by NF-κB over cells transfected with empty expression vector. Bars represent the mean of at least three independent experiments ±S.D. (B) COS-1 cells were transiently transfected with 4×NF-κ B(HIV)tkluc in combination with empty expression vector or expression vectors encoding the p50 and p65 subunits of NF-κB and expression vectors encoding ERα or ERβ. Cells were either untreated (white bars) or treated with 10^−8 M E2 (black bars) for 24 h. Depicted is the induction of luciferase activity evoked by NF-κB over cells transfected with empty expression vector. Bars represent the mean of at least three independent experiments ±S.D.
(A) COS-1 cells were transiently transfected with the −901luc reporter construct together with empty expression vector or expression vectors encoding the p50 and p65 subunits of NF-κB in combination with expression vectors encoding ERα and treated with E2, OH-T or ICI for 24 h as indicated. Depicted is the induction of luciferase activity evoked by NF-κB over cells transfected with empty expression vector. Bars represent the mean of at least three independent experiments ±S.D. FIG. 4. […] Depicted is the induction of luciferase activity evoked by the NF-κB subunits over cells transfected with empty expression vector. Bars represent the mean of at least three independent experiments ±S.D.
Cell Culture. […]

ERα = ERα (Homo sapiens, UniProt P03372); details: cited from earlier work
classical ERE = details: transactivation experiments, reference 22; cited from earlier work

## 4-hydroxytamoxifen
Human ERα
  enhancement of 5-HT1A receptor promoter activity by ERα and NF-κB: further induced; also recorded: as potent as E2
ERα
  transcription of genes under the control of an AP-1 element with ERα: activated
Classical ERE
  transcription of genes regulated by a classical ERE: inhibited transcription
